Reference: ChEMBL document CHEMBL1135473, “Synthesis of (+)-cis-N-(4-isothiocyanatobenzyl)-N-normetazocine, an isothiocyanate derivative of N-benzylnormetazocine as acylant agent for the sigma(1) receptor” (J Med Chem, 2002)

Assays:
[1] = molecular target: Sigma non-opioid intracellular receptor 1 (Homo sapiens) (UniProt Q99720); details: Cavia porcellus; 1 uM
[2] = molecular target: Sigma non-opioid intracellular receptor 1 (Homo sapiens) (UniProt Q99720); details: Cavia porcellus; 0.1 uM
Description: Maximum binding capacity against Sigma opioid receptor type 1 at 0.1 uM BNIT

[3] = molecular target: Sigma non-opioid intracellular receptor 1 (Homo sapiens) (UniProt Q99720); details: Cavia porcellus; 5 uM
[4] = molecular target: Sigma non-opioid intracellular receptor 1 (Homo sapiens) (UniProt Q99720); details: Cavia porcellus; 0.1 uM; remark: listed apart in the source
Description: Maximum binding capacity against Sigma opioid receptor type 2 at 0.1 uM BNIT

[5] = molecular target: Sigma non-opioid intracellular receptor 1 (Homo sapiens) (UniProt Q99720); details: Cavia porcellus; 0.1 uM; remark: listed apart in the source
[6] = molecular target: Sigma non-opioid intracellular receptor 1 (Homo sapiens) (UniProt Q99720); details: Cavia porcellus; 0.1 uM; remark: listed apart in the source
[7] = molecular target: Sigma non-opioid intracellular receptor 1 (Homo sapiens) (UniProt Q99720); details: Cavia porcellus; 200 nM

Sequence of Sigma non-opioid intracellular receptor 1 (Homo sapiens) (Q99720 whole entry): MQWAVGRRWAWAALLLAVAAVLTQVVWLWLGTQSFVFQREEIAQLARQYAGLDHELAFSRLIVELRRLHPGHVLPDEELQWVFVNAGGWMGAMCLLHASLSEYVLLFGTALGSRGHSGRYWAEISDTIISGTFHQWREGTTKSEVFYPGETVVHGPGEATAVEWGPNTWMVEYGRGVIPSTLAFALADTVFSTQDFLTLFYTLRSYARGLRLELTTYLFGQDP

| SMILES | Bmax [1] | Bmax1 [2] | Bmax [3] | Bmax2 [4] | Kd1 [5] | Kd2 [6] | Bmax [7] |
| --- | --- | --- | --- | --- | --- | --- | --- |
| Cc1ccccc1NC(=N)Nc1ccccc1C | 1010 fmol/mg | 674 | 957 fmol/mg | 1330 | 12.8 nM | 21.4 nM |  |
| CC(C)=CCN1CC[C@]2(C)c3cc(O)ccc3C[C@H]1[C@H]2C |  |  |  |  |  |  | 1120 fmol/mg |
